This note sets out measurements from patent US20150025002A1, “PEPTIDES AND PEPTIDE DERIVATIVES BASED ON XENIN” (UNIVERSITY OF ULSTER, priority 2012, published 2015).

For one data set, the system named is BRIN-BD11 cells. Put plainly: In vitro insulin secretion in BRIN-BD11 cells (radioimmunoassay). The class given is cell-based, rat. The conditions noted are these: 5.6 mM glucose; for insulin secretion compared to glucose alone, FIG. 1b experiment: P<0.05 to P<0.001. As to the method: BRIN-BD11 cells (ECACC accession number 100330033) were cultured in RPMI 1640 tissue culture medium containing 10% (v/v) foetal calf serum, 1% (v/v) antibiotics (100 U/ml of penicillin and 0.1 mg/ml of streptomycin). BRIN-BD11 cells were originally derived by means of electrofusion of a New England Deaconess Hospital (NEDH) rat pancreatic beta-cell line with an RINm5F cell line in order to produce an immortal, glucose sensitive, insulin secreting cell line (McClenaghan etal., Diabetes. 1996 August; 45(8):1132-40). All cells were maintained in sterile tissue culture flasks (Corning Glass Works, Corning, N.Y., USA) at 37° C. in an atmosphere of 5% CO2 and 95% air, using an LEEC incubator (Laboratory Technical Engineering, Nottingham, UK).
BRIN-BD11 cells were seeded into 24-well plates at a density of 1×10^5 cells and allowed to attach to the wells overnight in an incubator. Before acute studies of insulin were carried out, the cells underwent a 40 min preincubation period at 37° C. with 1.0 ml of Krebs Ringer bicarbonate buffer (115 mM NaCl, 4.7 mM KCl, 1.28 mM CaCl2.2H2O, 1.2 mM KH2PO4, 1.2 mM MgSO4.7H2O, 10 mM NaHCO3, 5 g/l bovine serum albumin (BSA), pH 7.4) supplemented with 1.1 mM glucose. […] The incubations were performed for 20 min at 37° C., after which the buffer solution was removed and 2×200 μl aliquots stored at −20° C. until measurement of insulin levels by radioimmunoassay (RIA).

Data set [1] addresses Dipeptidyl peptidase-4 (DPP-4) (Homo sapiens, UniProt P27487). The conditions noted are these: pH 7.8.
Protocol: Dipeptidyl peptidase-4 (DPP-4) was used to determine the degradation properties and identify any degradation products. Each peptide (30 μg) was incubated at 37° C. DPP-4 with 455 μl 50 mM triethanolamine-HCl (TEA) pH 7.8 buffer, and the reaction was stopped with 5 μl 10% (v/v) TFA. Time 0, 15, 30, 60, 120, 240 and 480 minutes degradation profiles were measured and HPLC was carried out to identify the degradation pattern and degradation products.
Another data set relates to high-fat fed mice. Briefly: Persistent glucose-lowering in high-fat fed mice, peptide given 4 hours before glucose load. The following applies: 25 nmol/kg i.p. 4 hours before glucose load. In kind it is in vivo. As to the method:
(§1) NIH Swiss male mice (6 weeks old) were housed in an air conditioned room 22±2° C. with a 12 h light: 12 h dark cycle. Animals were maintained on a high fat diet 16 weeks prior to commencement and throughout the study. Drinking water and high fat diet was freely available. All animal studies were performed in accordance with the UK Animals (Scientific Procedures) Act 1986 under project licences held by the inventor.
Freely fed animals were divided into weight-matched groups (n=8) and administered, by intraperitoneal injection, saline vehicle (0.9% NaCl) or saline in combination with each peptide (25 nmol/kg body weight). Food was then immediately withdrawn and 4 hours later all mice received an intraperitoneal injection of glucose alone (18 mmol/kg body weight). Blood samples were collected immediately prior to (t=0) and 15, 30 and 60 min post glucose injection. Whole blood was used to measure glucose values using an Acensia CONTOUR Microfill Blood Glucose Meter and Acensia MICROFILL test strips (Bayer Healthcare, UK).

The next data set concerns high fat fed mice. Put plainly: Acute glucose homeostasis and insulin secretion in high fat fed mice. The class given is in vivo. The conditions noted are these: 25 nmol/kg i.p. with glucose 18 mmol/kg. The procedure: as §1
Freely fed animals were divided into weight-matched groups (n=8) and administered, by intraperitoneal injection, glucose alone (18 mmol/kg body weight) or glucose in combination with each peptide (25 nmol/kg body weight). Blood samples were collected immediately prior to (t=0) and 15, 30 and 60 min post-injection. Whole blood was used to measure glucose values using an Acensia CONTOUR Microfill Blood Glucose Meter and Acensia MICROFILL test strips (Bayer Healthcare, UK). Blood samples for measurement of insulin was collected into fluorine/heparin microcentrifuge tubes (Sarstedt, Numbercht, Germany) at times indicated above and immediately centrifuged using a Beckman microcentrifuge (Beckman Instruments, UK) for 5 min at 13,000 g. Plasma was then aliquoted and stored at −20° C. prior to insulin determination by RIA.

Data set [2] in a line: Incubation in the presence of murine plasma (MALDI-ToF MS, ESI MS). The following applies: 37° C., 50 mM TEA-HCl pH 7.8, up to 24 hours.
Protocol: MALDI-ToF Mass Spectrometry: Following solid phase extraction, samples for each degradation time-point were subsequently mixed with α-cyano-4-hydroxycinnamic acid and applied to a Voyager-DE BioSpectrometry Workstation and mass-to-charge (m/z) ratio verses peak intensity recorded.
ESI Mass Spectrometry: Samples for each degradation time-point were applied to the ESI Ion-trap MS/MS utilizing a mass-to-charge range (m/z) of 0-2000. Resulting mass spectra were analyzed with the turbo sequest algorithm and degradation fragments sequenced against a fasta database containing the native xenin sequence.

Square brackets hold non-standard residues; d marks the D form. Ends that are not written are not given here.

Dipeptidyl peptidase-4 (DPP-4), sequence (P27487 whole entry, species assumed): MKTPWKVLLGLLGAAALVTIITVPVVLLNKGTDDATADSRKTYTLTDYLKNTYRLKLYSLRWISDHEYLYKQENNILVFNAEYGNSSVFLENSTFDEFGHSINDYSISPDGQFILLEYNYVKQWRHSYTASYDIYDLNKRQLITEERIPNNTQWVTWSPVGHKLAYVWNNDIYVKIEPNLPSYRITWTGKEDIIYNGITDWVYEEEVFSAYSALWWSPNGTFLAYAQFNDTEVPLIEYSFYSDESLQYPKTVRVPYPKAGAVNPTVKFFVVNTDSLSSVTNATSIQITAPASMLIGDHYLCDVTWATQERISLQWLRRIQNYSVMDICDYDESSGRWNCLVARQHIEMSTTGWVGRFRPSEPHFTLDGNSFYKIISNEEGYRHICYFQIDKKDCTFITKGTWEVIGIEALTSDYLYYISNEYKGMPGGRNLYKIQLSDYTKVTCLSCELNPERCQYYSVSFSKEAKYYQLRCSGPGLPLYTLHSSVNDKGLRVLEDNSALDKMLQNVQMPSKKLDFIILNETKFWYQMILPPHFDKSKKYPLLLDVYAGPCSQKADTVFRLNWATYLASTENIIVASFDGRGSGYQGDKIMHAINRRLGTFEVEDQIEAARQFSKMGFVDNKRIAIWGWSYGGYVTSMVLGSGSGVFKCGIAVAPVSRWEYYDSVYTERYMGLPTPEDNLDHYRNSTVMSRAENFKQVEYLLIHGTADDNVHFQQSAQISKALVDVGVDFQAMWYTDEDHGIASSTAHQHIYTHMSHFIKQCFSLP

In the case of “(D-Ala^2)GIP: YAEGTFISDYSIAMDKIHQQDFVNWLLAQKGKKNDWKHNITQ, alanine at position 2 is a D-amino acid (Y[dA]EGTFISDYSIAMDKIHQQDFVNWLLAQKGKKNDWKHNITQ)”, the “insulin secretion compared to glucose alone, FIG. 1b experiment” value with BRIN-BD11 cells is “significantly stimulated insulin secretion in a concentration-dependent manner”.

Turning to “MLTKFETKSARVKGLSFHPKRPWIL-OH [native xenin]”, the “degradation by DPP-IV” value in data set [1] was “completely resistant to degradation by DPP-IV”. For the same substance, in the data set with high-fat fed mice, the “effect on plasma glucose when administered 4 hours previously” value is “did not elicit any significant effects on plasma glucose”. The “plasma glucose AUC vs glucose alone” value in the data set with high fat fed mice (0-60 min) is listed as “failed to reach overall significance”. Besides, the “plasma glucose excursion vs glucose alone” value in the data set on high fat fed mice (0-60 min, FIG. 2a) is recorded as “not significantly different to animals receiving glucose alone”. In the data set on high fat fed mice (FIG. 2b/2f), the “plasma insulin response vs glucose alone” value is given as “not significantly different to animals receiving glucose alone”. In addition, the “insulin secretion, peptide alone” value with BRIN-BD11 cells (20 min, 10^-12 to 10^-6 M, FIG. 1a/1e) is recorded as “stimulated insulin secretion in a concentration-dependent manner”. The “insulin secretion compared to glucose alone, FIG. 1b experiment” value with BRIN-BD11 cells was “significantly stimulated insulin secretion in a concentration-dependent manner”. Further, in the data set on BRIN-BD11 cells (peptide alone, FIG. 1a/1e), the “insulin production compared to glucose alone, concentrations with significant effect” value is “significantly enhanced insulin production at concentrations of 10^−8 and 10^−6 M”.

Regarding MLTQFETQSAQVQGLSFHPQQPWIL [xenin-Gln], the “degradation in murine plasma” value in data set [2] is “stable in the presence of murine plasma”.
